# Source: patent US11690824B2, “Antibacterial compounds” (THE GENERAL HOSPITAL CORPORATION, priority 2018, dated 2023)
# Key:
# MRSA MW2 [1] = test: Serial passage resistance development; assay type: cell-based, S. aureus; details: 25 days, sub-MIC concentrations
# Method: Serial passage resistance development. […] Briefly, an extended range of concentrations of nTZDpa was generated by two-fold serial dilution with cation-adjusted Mueller Hinton (CaMH) broth (Difco, Detroit, USA) from three different starting concentrations (20, 24, and 32 μg/mL) covering 0.1875 to 32.0 μg/mL, which extended over three rows of the 96-well plate. Three sets of the extended gradient of nTZDpa were created in the 96-well plate to provide triplicates of the experiment. […] MRSA MW2 overnight cultures were adjusted to 1×10^6 CFU/mL in CaMH broth, and 50 μL of the diluted cultures were dispensed into the 96-well plates containing 50 μL of the extended gradient of antibiotics. After incubation for 24 h at 35° C., bacterial growth was determined by measuring optical density at 600 nm using a SpectraMax plate reader (Molecular Devices, Sunnyvale, Calif.), and growth was defined as an optical density reading of ≥0.1. Bacterial cells growing at the highest concentration of the antimicrobial (just below the MIC) were diluted 1:1000 in CaMH broth and then used to inoculate the next day's serial-passage plate. The remaining bacterial cells were stored at −80° C. in CaMH broth with 16% glycerol. This process was repeated for 25 days.
# [2] = test system: vancomycin-resistant Enterococcus faecium strains; test: MIC against vancomycin-resistant strains; assay type: cell-based
# Source text: Bacterial strains, growth conditions, and persister isolation. Methicillin-resistant S. aureus strains, MW2 BAA-1707, ATCC 33591, and JE2, methicillin-susceptible S. aureus strains, NCTC 8325, Newman, and ATCC 29213, vancomycin-resistant S. aureus strain, VRS1, Enterococcus faecium E007, vancomycin-resistant E. faecium strains, C68,^7 WB312, and WC196, Klebsiella pneumoniae WGLW2 (BEI Resources, Manassas, Va., USA), Acinetobacter baumannii ATCC 17978, Pseudomonas aeruginosa PA14, and Enterobacter aerogenes ATCC 13048 were used to test antimicrobial activity (Table 1). S. aureus strains were grown in tryptic soy broth (TSB) (BD, Franklin Lakes, N.J., USA), and E. faecium was grown in brain-heart infusion (BHI) broth (BD, Franklin Lakes, N.J., USA) at 37° C. K. pneumoniae, A. baumannii, P. aeruginosa, and E. aerogenes were grown in Luria Bertani (LB) broth (BD, Franklin Lakes, N.J., USA) at 37° C.
# Minimal inhibitory concentration (MIC) assay. The MICS of antibiotics were determined by the standard micro-dilution method recommended by the Clinical and Laboratory Standards Institute. MIC assays were conducted in biological triplicate.
# MRSA MW2 [3] = test: Deep-seated mouse thigh infection model; assay type: in vivo; details: 5 days
# Method: Deep-seated mouse thigh infection model. In vivo efficacy of nTZDpa alone or in combination with gentamicin against MRSA persisters was evaluated by a previously described neutropenic mouse thigh infection model with modifications. Six-week-old female CD-I mice (20-25 g, Charles River Laboratories, Wilmington, Mass., USA) were obtained from Charles River Laboratories (Wilmington, Mass., USA). The CD-I mice were rendered neutropenic by administering 150 mg/kg and 100 mg/kg of cyclophosphamide intraperitoneally (i.p.) at 4 days and 1 day before infection, respectively. On the day of infection, overnight culture of MRSA MVV2 was washed 3-time with sterile saline and diluted to 10^7 CFU/ml in the saline. 50 μl of the diluted culture (5×10^5 CFU per mouse) was injected to the right thigh of each mouse. nTZDpa was dissolved in Kolliphor EL (Sigma-Aldrich, St Louis, Mo., USA)/ethanol 1:1 and then diluted 1:10 in saline to a final concentration of 50 mg/kg. At 24 h post-infection, groups of mice (n=10) were treated with 30 mg/kg gentamicin subcutaneously (s.c.) every 12 h, 25 mg/kg vancomycin i.p. every 24 h, 50 mg/kg nTZPpa i.p. every 24 h, or the combination of 50 mg/kg nTZDpa i.p. every 24 h and 30 mg/kg gentamicin s.c. every 12 h for 5 days. Control mice were injected with 250 μl of 10% Kolliphor EL/ethanol in saline i.p. every 24 h for 5 days. Mice were euthanized at 96 h post-infection. Blood was collected by cardiac puncture, and the infected thighs were aseptically excised, weighed, and stored at 4° C. until homogenization. To evaluate hepatic and renal toxicities, the levels of alanine aminotransferase and blood urea nitrogen were analyzed with commercially available kits, following the manufacturer's protocol (Pointe Scientific, Canton, Mich., USA). Thighs were homogenized in PBS, serially diluted with PBS, and spot-plated on TSA plates. […] Statistical significance among each group was analyzed by one-way ANOVA with post-hoc Tukey test using PASW Statistics 18 (SPSS Inc. Chicago, Ill., USA).
# [4] = test system: MRSA-infected C. elegans glp-4(bn2);sek-1(km4); test: C. elegans-MRSA liquid killing assay; assay type: in vivo
# Method: C. elegans-MRSA liquid killing assay. The C. elegans-MRSA infection assay was conducted as described in a previous study. Briefly, a black, clear-bottom 384-well plate (Corning no. 3712) was filled with 20 μL M9 buffer including the desired concentrations of nTZDpa, 1% DMSO (negative control), or 10 μg/mL vancomycin (positive control). After adding 15 young adult C. elegans glp-4(bn2);sek-1(km4) animals to the wells using a COPAS large particle sorter (Union Biometrica, Mass., USA), 35 μL of MRSA MW2 suspension was added (OD600 0.08). The assay plate was sealed with a gas-permeable membrane (Breathe-Easy, Diversified Biotech, Dedham, Mass., USA), and then incubated in a humidified chamber at 25° C. for 5 days. After washing the plate 8-times with M9 buffer using a microplate washer (BioTek EL×405, BioTek, Vt., USA), worms were stained with 0.7 μM SYTOX Orange. To evaluate worm survivability, the worms were imaged using an Image Xpress Micro automated microscope (Molecular Devices), capturing both transmitted light and TRITC (535 nm excitation, 610 nm emission) fluorescent images with a 2× objective. Only dead worms stain with SYTOX Orange. The assay was conducted in biological triplicate.
# S. aureus ATCC 29213 = test: MIC assay; assay type: cell-based; details: Staphylococcus aureus, ATCC29213; S. aureus ATCC 29213; read-out: Minimum inhibitory concentration
# How it was run: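 Broth microdilution per CLSI standard, run in biological triplicate. S. aureus strains were grown in tryptic soy broth and E. faecium in brain-heart infusion broth, both at 37° C.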
compound,measurement,setting,value
O=C(O)c1c(Sc2ccccc2)c2cc(Cl)ccc2n1Cc1ccc(Cl)cc1 [nTZDpa],increase of MIC over wild-type after serial passage,MRSA MW2 [1],no increase in the nTZDpa MIC was observed
same,MIC,[2],4 µg/mL
same,persister cells killed in thigh,"MRSA MW2 [3]; 50 mg/kg nTZDpa i.p. with 30 mg/kg gentamicin s.c., p<0.001",~95%
same,"MRSA CFUs / viability of persisters in thigh, single agent","MRSA MW2 [3]; vancomycin 25 mg/kg i.p., gentamicin 30 mg/kg s.c., nTZDpa 50 mg/kg i.p.",no effect on the viability of persisters
same,C. elegans rescued from MRSA-mediated lethality,[4]; 2 μg/ml to 16 μg/ml,~90%
same,EC50,"[4]; Caenorhabditis elegans, 120 h, read-out: EC50 (median effective concentration), C. elegans survival",~0.6 µg/mL
same,EC50 relative to EC50 of vancomycin,[4]; fold higher,2 fold
same,MIC,S. aureus ATCC 29213,4 µg/mL
